Assay results reported in the NIST ThermoML archive (doi:10.1016/j.fluid.2014.03.001).
± gives the expanded uncertainty stated by the source.

Conditions: Crystal 1; DTA
With `CCCCCCCCCCCCCCCCCC(=O)OCC` [ethyl octadecanoate] the Normal melting temperature was 34.7 ± 0.7 °C.
`CCCCCCCCCCCCCC(=O)OCC` [ethyl tetradecanoate] showed a Normal melting temperature of 14.2 ± 0.5 °C.
For `CCCCCCCC/C=C\CCCCCCCC(=O)OCC` [ethyl (Z)-9-octadeceneoate], the Normal melting temperature was -18.8 ± 0.7 °C.
